Reference: patent publication US5360895A, “Derivatized gold clusters and antibody-gold cluster conjugates” (priority 1992, dated 1994)

Key:
[1] = Biodistribution of radioactive gold clusters (no antibody) in healthy mice; format: in vivo
Protocol: Typically the blood had 2.8%, the spleen 0.4%, the stomach 0.4%, kidney 5.1%, bone 2.5%, gut and feces 3.3%, liver 19.3% and, carcass 13.7% of the injected amount after 24 hours. These numbers are % counts per organ normalized to 25 gm mice.

[2] = Thermal stability of gold clusters; format: physicochemical; settings: 100° C.
[3] = system: human colon carcinoma cells (LS180)
Protocol: The 17-1A Fab' fragment-(radioactive gold)-undecagold cluster conjugate was incubated in vitro with tumor cells (LS180- a cell culture of human colon carcinoma) and non tumor cells (WM164 - a cell culture of melanoma as control) and the radioactivity of the gold was used to assay binding.
bound to cells after incubation and washing.
entry is an average (+ s.d.) of 2 samples.

[4] = system: melanoma cells (WM164)
[5] = Biodistribution of radioactive gold clusters (no antibody) in healthy mice; format: in vivo; settings: after 2 hours, tail vein
[6] = Toxicity of radioactive gold clusters (no antibody) in healthy mice; settings: tail vein; 7.8, 12.6 or 24 μg gold metal; 2 or 24 hours
[7] = Stability of photocrosslinked Au13 cluster to KCN (optical density at 346 and 420 nm); format: physicochemical; settings: 100 μl of cluster (1 μMolar) with 20 μl of 0.1M KCN
Protocol: Two nmol of the Au13 [P(PhCONH(CH2)3 NH2)3 ]10 cluster in 0.1M sodium citrate buffer, pH 5, was incubated with the crosslinking reagent, N-hydroxysuccinimidyl-4-azidosalicylic acid (NHS-ASA). A range of amounts was tried, from 1 to 100-fold molar excess over the number of amines in the cluster. Incubation was carried out in the dark for 30 min. The solution was exposed to UV light (Ultraviolet Products Inc., Lamp R-52) at 4 cm for 5 min. The product was purified on a 0.66×50 cm column of GH-25 (Amicon) using the buffer 0.36M triethylammonium bicarbonate/70% methanol in water. Alternately, these last two steps were reversed so that unreacted crosslinker was removed on the column before UV treatment.
The crosslinked cluster stability was quantitated by observing the decrease in optical density at 346 and 420 nm in a spectrophotometer at regular intervals after adding KCN or glutathione. One hundred μl of cluster (1 μMolar) was mixed with 20 μl of 0.1M KCN. […] Noncrosslinked cluster was completely destroyed after 2 min under these conditions.
A longer photocrosslinking reagent was also used, sulfosuccinimidyl 6-(4'-azido-2'-nitrophenylamino) hexanoate (sulfo-SANPAH). The procedure was identical to that described above. For 100-fold initial excess of crosslinker, the resulting cluster product was 100% stable to KCN indefinitely, whereas uncrosslinked cluster was completely destroyed in 2 min.

[8] = Chemical stability of derivatized Au13 cluster
[9] = 24 hours, % counts per organ normalized to 25 gm mice

Substance | blood, % of the injected amount [1, 9] [%] | bone, % of the injected amount [1, 9] [%] | carcass, % of the injected amount [1, 9] [%] | gut and feces, % of the injected amount [1, 9] [%] | kidney, % of the injected amount [1, 9] [%] | liver, % of the injected amount [1, 9] [%] | spleen, % of the injected amount [1, 9] [%] | stomach, % of the injected amount [1, 9] [%] | clusters excreted ([1]; after 24 hours, tail vein) [%] | stability at 100° C. [2] | % bound to tumor cells (human colon carcinoma) [3] [%] | % bound to control cells (melanoma) [4] [%] | clusters excreted [5] [%] | death or unusual reaction during or following injection [6] | time to complete destruction in KCN [7] [min] | stability upon addition of 1M KCN [8]
Au11 [P(C6 H4 CONHR)3 ]7^3+ where 20 R groups are CH3 and one is (CH2)3 N(CO2)(CH2) | 2.8 | 2.5 | 13.7 | 3.3 | 5.1 | 19.3 | 0.4 | 0.4 | 56 | perfectly stable | 0.54 ± 0.04 | 0.51 ± 0.06 | 44 | no mice died or reacted unusually | – | –
Au13 [P(PhCONH(CH2)3 NH2)3 ]10 [derivatized Au13 cluster] | – | – | – | – | – | – | – | – | – | – | – | – | – | – | 2 | degraded
